Holding throughout (format): cell-based
One test addresses T1, human TLR7 (Homo sapiens, UniProt Q9NYK1).
T1 construct: host or cells: HEK-Blue cells (HEK293-derived reporter line)
T1 sequence (Q9NYK1 27-1049): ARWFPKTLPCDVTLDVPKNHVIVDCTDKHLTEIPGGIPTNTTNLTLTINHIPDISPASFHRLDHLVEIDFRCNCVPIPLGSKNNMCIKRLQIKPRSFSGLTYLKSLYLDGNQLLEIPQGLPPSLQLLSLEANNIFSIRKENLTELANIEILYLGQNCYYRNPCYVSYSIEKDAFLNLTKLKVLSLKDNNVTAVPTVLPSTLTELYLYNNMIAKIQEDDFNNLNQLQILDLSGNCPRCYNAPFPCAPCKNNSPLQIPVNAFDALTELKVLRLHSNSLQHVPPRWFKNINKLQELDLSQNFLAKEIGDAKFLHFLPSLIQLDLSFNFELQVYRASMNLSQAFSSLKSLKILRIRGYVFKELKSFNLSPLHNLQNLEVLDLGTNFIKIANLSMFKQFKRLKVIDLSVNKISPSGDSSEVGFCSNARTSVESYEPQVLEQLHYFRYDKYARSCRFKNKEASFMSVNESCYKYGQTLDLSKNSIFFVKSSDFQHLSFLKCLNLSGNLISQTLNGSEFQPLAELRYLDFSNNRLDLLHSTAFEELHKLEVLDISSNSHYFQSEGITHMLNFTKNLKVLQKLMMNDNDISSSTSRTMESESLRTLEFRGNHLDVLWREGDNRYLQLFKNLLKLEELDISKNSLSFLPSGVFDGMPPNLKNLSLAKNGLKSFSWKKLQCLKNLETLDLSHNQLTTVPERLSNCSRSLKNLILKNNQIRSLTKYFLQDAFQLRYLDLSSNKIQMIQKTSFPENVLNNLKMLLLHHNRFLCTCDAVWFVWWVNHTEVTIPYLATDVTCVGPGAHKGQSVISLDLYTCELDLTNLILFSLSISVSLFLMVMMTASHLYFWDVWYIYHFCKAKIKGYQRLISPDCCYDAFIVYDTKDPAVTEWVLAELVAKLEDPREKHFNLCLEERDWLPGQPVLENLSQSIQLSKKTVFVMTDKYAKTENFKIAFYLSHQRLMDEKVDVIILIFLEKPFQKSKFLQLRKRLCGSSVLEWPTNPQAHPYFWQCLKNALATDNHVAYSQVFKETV
The experiment in a line: TLR7 inhibition reporter assay (HEK-Blue cells, SEAP reporter, gardiquimod stimulation). The settings on record: HEK-Blue cells overexpressing human TLR7, SEAP reporter, gardiquimod 7.5 μM. Put shortly: (§1)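 HEK-Blue cells overexpressing human TLR7, TLR8 or TLR9 (NF-κB/AP-1-driven SEAP) pre-treated 30 min at room temperature with compound (0.05 nM–50 μM), then stimulated with gardiquimod 7.5 μM (TLR7), R848 15.9 μM (TLR8) or ODN2006 5 nM (TLR9). SEAP read colorimetrically after 22 h at 37 °C; % inhibition calculated.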
On the technique in general: Reporter assays use an easily measured gene product as a stand-in for the process of interest.

A further test addresses T2, human TLR8 (Homo sapiens, UniProt Q9NR97).
T2 construct: host or cells: HEK-Blue cells (HEK293-derived reporter line)
T2 sequence (Q9NR97 27-1041): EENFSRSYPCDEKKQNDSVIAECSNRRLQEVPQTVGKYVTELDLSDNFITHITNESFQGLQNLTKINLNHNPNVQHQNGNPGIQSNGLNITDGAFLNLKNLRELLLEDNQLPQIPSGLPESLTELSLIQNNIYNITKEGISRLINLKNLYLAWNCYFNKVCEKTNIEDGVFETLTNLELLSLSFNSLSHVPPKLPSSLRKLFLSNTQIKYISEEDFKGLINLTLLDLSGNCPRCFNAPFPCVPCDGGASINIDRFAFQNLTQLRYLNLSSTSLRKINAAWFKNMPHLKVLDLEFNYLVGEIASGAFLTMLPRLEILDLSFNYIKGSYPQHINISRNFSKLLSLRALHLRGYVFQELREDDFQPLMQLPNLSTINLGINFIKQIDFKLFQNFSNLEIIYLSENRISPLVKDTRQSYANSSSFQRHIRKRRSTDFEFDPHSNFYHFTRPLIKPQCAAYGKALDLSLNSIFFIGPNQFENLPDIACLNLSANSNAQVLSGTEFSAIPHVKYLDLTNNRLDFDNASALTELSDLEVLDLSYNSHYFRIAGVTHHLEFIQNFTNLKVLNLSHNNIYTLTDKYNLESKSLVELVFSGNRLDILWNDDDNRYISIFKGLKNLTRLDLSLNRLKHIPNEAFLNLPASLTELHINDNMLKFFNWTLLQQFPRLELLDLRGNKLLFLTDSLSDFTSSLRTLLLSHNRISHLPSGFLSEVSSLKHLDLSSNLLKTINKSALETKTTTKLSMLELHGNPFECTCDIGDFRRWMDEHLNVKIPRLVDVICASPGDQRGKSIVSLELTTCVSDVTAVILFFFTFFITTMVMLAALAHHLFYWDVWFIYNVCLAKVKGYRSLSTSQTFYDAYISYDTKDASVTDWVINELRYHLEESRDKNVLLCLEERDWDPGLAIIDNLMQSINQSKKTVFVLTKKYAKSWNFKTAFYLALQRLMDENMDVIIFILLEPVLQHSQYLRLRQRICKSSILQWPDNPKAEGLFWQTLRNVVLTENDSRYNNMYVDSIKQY
The experiment in a line: TLR8 inhibition reporter assay (HEK-Blue cells, SEAP reporter, R848 stimulation). The settings on record: HEK-Blue cells overexpressing human TLR8, SEAP reporter, R848 15.9 μM. A digest of the protocol:
as §1

The target of a further test is T3, human TLR9 (Homo sapiens, UniProt Q9NR96).
T3 construct: host or cells: HEK-Blue cells (HEK293-derived reporter line)
T3 sequence (Q9NR96 26-1032): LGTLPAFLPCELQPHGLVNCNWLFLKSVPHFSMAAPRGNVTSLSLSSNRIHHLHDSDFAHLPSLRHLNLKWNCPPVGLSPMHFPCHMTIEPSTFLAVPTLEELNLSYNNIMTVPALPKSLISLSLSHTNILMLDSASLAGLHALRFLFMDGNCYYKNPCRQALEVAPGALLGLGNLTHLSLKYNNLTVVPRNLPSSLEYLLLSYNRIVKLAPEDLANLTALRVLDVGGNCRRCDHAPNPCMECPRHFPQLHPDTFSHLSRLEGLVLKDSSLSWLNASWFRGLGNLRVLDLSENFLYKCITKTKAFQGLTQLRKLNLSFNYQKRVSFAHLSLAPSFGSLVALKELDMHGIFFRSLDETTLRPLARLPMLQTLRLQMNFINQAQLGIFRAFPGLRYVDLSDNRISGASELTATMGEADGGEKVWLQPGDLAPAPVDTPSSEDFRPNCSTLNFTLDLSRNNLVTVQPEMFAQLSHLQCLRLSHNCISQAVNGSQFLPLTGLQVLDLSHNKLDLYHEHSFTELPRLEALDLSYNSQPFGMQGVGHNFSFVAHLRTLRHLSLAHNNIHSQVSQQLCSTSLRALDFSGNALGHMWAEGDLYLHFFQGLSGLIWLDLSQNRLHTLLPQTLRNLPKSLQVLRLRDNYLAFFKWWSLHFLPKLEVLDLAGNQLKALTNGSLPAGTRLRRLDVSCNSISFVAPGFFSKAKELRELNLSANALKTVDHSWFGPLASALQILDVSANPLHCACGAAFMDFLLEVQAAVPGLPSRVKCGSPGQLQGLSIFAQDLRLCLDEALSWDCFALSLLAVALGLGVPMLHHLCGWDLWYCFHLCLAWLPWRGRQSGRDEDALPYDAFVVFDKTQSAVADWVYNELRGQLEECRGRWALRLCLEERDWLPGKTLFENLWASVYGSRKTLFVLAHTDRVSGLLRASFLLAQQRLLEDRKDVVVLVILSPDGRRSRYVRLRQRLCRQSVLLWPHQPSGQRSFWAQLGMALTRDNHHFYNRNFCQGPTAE
The experiment in a line: TLR9 inhibition reporter assay (HEK-Blue cells, SEAP reporter, ODN2006 stimulation). The note with it: HEK-Blue cells overexpressing human TLR9, SEAP reporter, ODN2006 5 nM. Put shortly:
as §1

Where only a bound is given, the exact number is not on record here.

For 12 compounds, IC50 results are on record in patent US11739098B2 (BRISTOL-MYERS SQUIBB COMPANY, priority 2017, dated 2023).

Broadly, the IC50 is the point on the concentration scale where inhibition reaches its midpoint. Lower therefore signals higher potency.

In the case of `Cc1ccnc2c1c(-c1[nH]c3ccc(C4CCN(C5CCOCC5)CC4)cc3c1C(C)C)cn2C` [Example 689, 3-(3-isopropyl-5-(1-(tetrahydro-2H-pyran-4-yl)piperidin-4-yl)-1H-indol-2-yl)-1,4-dimethyl-1H-pyrrolo[2,3-b]pyridine], the figures for the IC50 against human TLR7, against human TLR8 and on human TLR9 were below 100 nM, below 100 nM and 1000 to 50000 nM, respectively.
On to `COc1cc(-c2[nH]c3ccc(C4CCN(Cc5cnn[nH]5)CC4)cc3c2C(C)C)nn2ncnc12` [Example 860, 6-(5-(1-((1H-1,2,3-triazol-5-yl)methyl)piperidin-4-yl)-3-isopropyl-1H-indol-2-yl)-8-methoxy-[1,2,4]triazolo[1,5-b]pyridazine], for which the IC50 on human TLR7 is below 100 nM; at human TLR8, below 100 nM; on human TLR9 it was 1000 to 50000 nM.
With `COc1cc(-c2[nH]c3ccc(C4CCN(C5CCOCC5)CC4)cc3c2C(C)C)nn2ncnc12` [Example 692, 6-(3-isopropyl-5-(1-(tetrahydro-2H-pyran-4-yl)piperidin-4-yl)-1H-indol-2-yl)-8-methoxy-[1,2,4]triazolo[1,5-b]pyridazine], the results for the IC50 against human TLR7, at human TLR8 and on human TLR9 were below 100 nM, below 100 nM and 1000 to 50000 nM, respectively.
Consider `COc1c(C)c(-c2[nH]c3ccc(C4CCNCC4)cc3c2C(C)C)nn2ncnc12` [Example 33, 6-(3-isopropyl-5-(piperidin-4-yl)-1H-indol-2-yl)-8-methoxy-7-methyl-[1,2,4]triazolo[1,5-b]pyridazine], for which the half-inhibitory concentration (IC50) against human TLR7 was below 100 nM; on human TLR8 it was below 100 nM; against human TLR9, 100 to 1000 nM.
As for `Cc1cc2nccn2cc1-c1[nH]c2ccc(C3CCN(CC(=O)N(C)C)CC3)cc2c1C(C)C` [Example 431, 2-(4-(3-isopropyl-2-(7-methylimidazo[1,2-a]pyridin-6-yl)-1H-indol-5-yl)piperidin-1-yl)-N,N-dimethylacetamide], the concentration for half-maximal inhibition (IC50) is below 100 nM against human TLR7, 100 to 1000 nM against human TLR8 and 1000 to 50000 nM on human TLR9.
For the compound `CC(C)c1c(-c2ccnc3[nH]ncc23)[nH]c2ccc(C3CCN(CCCN4CCOCC4)CC3)cc12` [Example 857, 4-(3-(4-(3-isopropyl-2-(1H-pyrazolo[3,4-b]pyridin-4-yl)-1H-indol-5-yl)piperidin-1-yl)propyl)morpholine], the figures for the IC50 against human TLR7, against human TLR8 and at human TLR9 were 1000 to 50000 nM, 1000 to 50000 nM and 100 to 1000 nM, respectively.
As to `Cc1cc2nnnn2cc1-c1[nH]c2ccc(C3CCN(C4CCS(=O)(=O)CC4)CC3)cc2c1C(C)C` [Example 791, 4-(4-(3-isopropyl-2-(7-methyltetrazolo[1,5-a]pyridin-6-yl)-1H-indol-5-yl)piperidin-1-yl)tetrahydro-2H-thiopyran 1,1-dioxide], the half-maximal inhibitory concentration (IC50) against human TLR7 is below 100 nM; against human TLR8, below 100 nM; against human TLR9, 1000 to 50000 nM.
Take `CC(C)c1c(-c2ccnc3[nH]ncc23)[nH]c2ccc(C3CCN(Cc4ccc(N5CCCC5)cc4)CC3)cc12` [Example 905, 4-(3-isopropyl-5-(1-(4-(pyrrolidin-1-yl)benzyl)piperidin-4-yl)-1H-indol-2-yl)-1H-5 pyrazolo[3,4-b]pyridine]: the IC50 was 100 to 1000 nM against human TLR7, below 100 nM against human TLR8 and 1000 to 50000 nM against human TLR9.
Take `Cc1nc2c(-c3[nH]c4ccc(C5CCN(C(=O)CN(C)C)CC5)cc4c3C(C)C)ccc(C)n2n1` [Example 515, 1-(4-(2-(2,5-dimethyl-[1,2,4]triazolo[1,5-a]pyridin-8-yl)-3-isopropyl-1H-indol-5-yl)piperidin-1-yl)-2-(dimethylamino)ethan-1-one]: the IC50 was 1000 to 50000 nM against human TLR7, 100 to 1000 nM against human TLR8 and 1000 to 50000 nM against human TLR9.
In the case of `CC(C)c1c(-c2cn(C)c3ncccc23)[nH]c2ccc(C3CCN(C4CCS(=O)(=O)CC4)CC3)cc12` [Example 784, 4-(4-(3-isopropyl-2-(1-methyl-1H-pyrrolo[2,3-b]pyridin-3-yl)-1H-indol-5-yl)piperidin-1-yl)tetrahydro-2H-thiopyran 1,1-dioxide], the values for the IC50 against human TLR7, on human TLR8 and on human TLR9 were below 100 nM, below 100 nM and 1000 to 50000 nM, respectively.
As to `CC(C)c1c(-c2cccn3ncnc23)[nH]c2ccc(C3CCN(C(=O)CN(C)C)CC3)cc12` [Example 514, 1-(4-(2-([1,2,4]triazolo[1,5-a]pyridin-8-yl)-3-isopropyl-1H-indol-5-yl)piperidin-1-yl)-2-(dimethylamino)ethan-1-one], the results for the IC50 at human TLR7, against human TLR8 and on human TLR9 were 100 to 1000 nM, 100 to 1000 nM and 1000 to 50000 nM, respectively.
As to `CC(C)c1c(-c2ccc3c(N)noc3c2)[nH]c2ccc(C3CCNCC3)cc12` [Example 86, 6-(3-isopropyl-5-(piperidin-4-yl)-1H-indol-2-yl)benzo[d]isoxazol-3-amine], the IC50 against human TLR7, on human TLR8 and against human TLR9 was 100 to 1000 nM throughout.
